Measured values taken from patent US20120022143A1, “RNA Interference Mediated Inhibition of the Thymic Stromal Lymphopoietin (TSLP) Gene Expression Using Short Interfering Nucliec Acid (siNA)” (Merck Sharp & Dohme Corp, priority 2009, published 2012).
[invAb] = inverted abasic unit; d = 2'-deoxy (DNA); m = 2'-O-methyl; r = 2'-OH (RNA); f = 2'-fluoro

Experiments:
TSLP mRNA = experiment: Initial screening: TSLP mRNA knock-down by RT-PCR (Taqman) after RNAiMax transfection of NHLF cells; type: cell-based; conditions: 10 nM siNA, human NHLF cells, 24 hrs post-transfection, relative to non-targeting control, normalized to GAPDH; mean ± s.d. from 2 experiments
Protocol: (§1) All cells were obtained from ATCC (Manassas, Va.) unless otherwise indicated. Cells were grown and transfected under standard conditions, which are detailed below for each cell line.
NHLF (human; Lonza cat# CC-2512): Cells were cultured at 37° C. in the presence of 5% CO2 and grown Fibroblast Basal Medium (Lonza cat# CC-3β2) supplemented growth factors (provided with the kit) and 100 μg/mL of streptomycin and 100 U/mL penicillin.
(§2) All transfections were performed using RNAiMax (Invitrogen Cat# 13778-150) as per the manufacturer's instructions.
(§3) Both human and murine cell lines were transfected in the similar fashion. Cells were plated in all wells of a tissue-culture treated, 96-well plate at a final count of 5,000 cells/well in […], of appropriate culture media. Cells were cultured for 24 hours after plating at 37° C. in the presence of 5% CO2.
(§4) After 24 hours, complexes containing siNA and RNAiMax were created as follows: A solution of RNAiMax diluted 33-fold in OPTI-MEM was prepared. In parallel, solutions of the siNAs for testing were prepared to a final concentration of 120 nM in OPTI-MEM. After incubation of RNAiMax/OPTI-MEM solution at room temperature for 5 min, an equal volume of the siNA solution and the RNAiMax solution were added together for each of the siNAs.
(§5) This solution was incubated at room temperature for 20 minutes. After incubation, 20 uL of the solution was added to each of the relevant wells.
(§6) The final concentration of siNA in each well was 10 nM and the final volume of RNAiMax in each well was 0.3 ul.
(§7) The time of incubation with the RNAiMax-siNA complexes was 24 hours, unless otherwise indicated. There was no change in media between the transfection and harvesting of the cells unless otherwise indicated.
(§8) RNA was extracted from a 96-well plate using the TaqMan® Gene Expression Cells-to-CT™ Kit (Cat# 4399002) with a modified protocol. Briefly, a 60 uL (1 plate) or 110 uL (2 plates) of the Lysis Solution with DNase I was dispensed into each well of the Lysis Buffer Plate (twin.tec full skirt plate). The lysis buffer and stop plates were stored at 4° C. until the cells were washed.
(§9) The plate was spun at 1100 rpm for 5 minutes. The culture medium was aspirated and discarded from the wells of the culture plate. The lysis was performed automatically using a BioMek FX instrument and method. After the Biomek method was completed, the lysis plate was incubated for 2 min. at room temperature. The lysis plate can be stored for 2 hours at 4° C., or at −20° C. or −80° C. for two months.
(§10) Each well of the reverse transcription plate required 10 uL of 2× reverse transcriptase Buffer, luL of 20× reverse transcription enzyme and 2 uL of nuclease-free water. The reverse transcription master mix was prepared by mixing 2× reverse transcription buffer, 20× reverse transcription enzyme mix, and nuclease-free water. 13 uL of the reverse transcription master mix was dispensed into each well of the reverse transcription plate (semi-skirted). A separate reverse transcription plate was prepared for each cell plate. The plate was loaded onto a Biomek NX or Biomek FX Dual-96 and the Biomek method was run. The program is programmed to automatically added 7 uL of lysate from the cell lysis procedure described above into each well of the reverse transcription plate. The plate is sealed and spun on a centrifuge (1000 rpm for 30 seconds) to settle the contents to the bottom of the reverse transcription plate. The plate is placed in a thermocycler at 37° C. for 60 min, 95° C. for 5 min, and 4° C. until the plate is removed from the thermocycler. Upon removal, if not used immediately, the plate was frozen at −20° C.
A series of probes and primers were used to detect the various mRNA transcripts of the genes of TSLP, IL-8 and GAPDH in human cell lines. All the Taqman probes and primers for the experiments here-in described were supplied as pre-validated sets by Applied Biosystems, Inc. (see Table 2). […]

mTSLP mRNA = experiment: Initial screening: mouse TSLP mRNA knock-down by RT-PCR (Taqman) after RNAiMax transfection of NIH 3T3 cells; type: cell-based; conditions: 10 nM siNA, 24 hrs post-transfection, mean ± s.d., summary from 2 screens
Protocol: as §1
NIH 3T3 (murine; ATCC cat#CRL-1658): Cells were cultured at 37° C. in the presence of 5% CO2 and grown in Dulbecco's modified Eagle's medium (DMEM) with 4 mM L-glutamine adjusted to contain 1.5 g/L sodium bicarbonate and 4.5 g/L glucose and supplemented with fetal bovine serum at a final concentration of 10% and 100 μg/mL of streptomycin and 100 U/mL penicillin.
as §2, §3, §4, §5, §6, §7, §8, §9, §10
A series of probes and primers were used to detect the various mRNA transcripts of the genes of TSLP, IL-8 and GAPDH in human cell lines. […]

Row | Substance | % KD TSLP (TSLP mRNA) | % KD mTSLP NIH3T3 (mTSLP mRNA)
1 | 25454-DC: siNA duplex: sense B AAuuuAuuuuGuGAAcAcu TTB (SEQ ID NO: 91), antisense AGUGuucAcAAAAuAAAuuUU (SEQ ID NO: 92) (sense AAUUUAUUUUGUGAACACUTT; antisense AGUGUUCACAAAAUAAAUUUU; sense: DNA at AGT, 2'-fluoro at CU, [invAb] at 5' end, 3' end, backbone not given here; antisense: sugars from the 5' end rrrmfffmfmmmmfmmmffmm, backbone not given here) | 63 ± 16.9% | 30.7 ± 22.5%
2 | 25464-DC: siNA duplex: sense B ccAGAAuAAAAuuAGcuuu TTB (SEQ ID NO: 111), antisense AAAGcuAAuuuuAuucuGGUU (SEQ ID NO: 112) (sense CCAGAAUAAAAUUAGCUUUTT; antisense AAAGCUAAUUUUAUUCUGGUU; sense: DNA at AGT, 2'-fluoro at CU, [invAb] at 5' end, 3' end, backbone not given here; antisense: sugars from the 5' end rrrmffmmffffmffffmmmm, backbone not given here) | 3 ± 39% | 89.2 ± 1.1%
3 | 25470-DC: siNA duplex: sense B AAAGuAGAAAAAAAAAuuA TTB (SEQ ID NO: 123), antisense UAAuuuuuuuuucuAcuuuUU (SEQ ID NO: 124) (sense AAAGUAGAAAAAAAAAUUATT; antisense UAAUUUUUUUUUCUACUUUUU; sense: sugars from the 5' end d4 f1 d11 f2 d3, [invAb] at 5' end, 3' end, backbone not given here; antisense: sugars from the 5' end r3 f11 m1 f4 m2, backbone not given here) | 28 ± 22.6% | 19.3 ± 10.3%
4 | 25430-DC: siNA duplex: sense B cccuGAAAAAGGAAAAAuA TTB (SEQ ID NO: 43), antisense UAUuuuuccuuuuucAGGGUU (SEQ ID NO: 44) (sense CCCUGAAAAAGGAAAAAUATT; antisense UAUUUUUCCUUUUUCAGGGUU; inverted abasic caps, TT overhang, chemistry not fully specified) | 89 ± 4.5% | 30.4 ± 9.9%
5 | 25435-DC: siNA duplex: sense B cccAAGcucuuAAAuGcuA TTB (SEQ ID NO: 53), antisense UAGcAuuuAAGAGcuuGGGUU (SEQ ID NO: 54) (sense CCCAAGCUCUUAAAUGCUATT; antisense UAGCAUUUAAGAGCUUGGGUU; sense: DNA at AGT, 2'-fluoro at CU, [invAb] at 5' end, 3' end, backbone not given here; antisense: sugars from the 5' end rrrfmfffmmmmmfffmmmmm, backbone not given here) | −8 ± 25.4% | −60.6 ± 5.4%
6 | 25467-DC: siNA duplex: sense B cAAGAGccuuGcAcAucuA TTB (SEQ ID NO: 117), antisense UAGAuGuGcAAGGcucuuGUU (SEQ ID NO: 118) (sense CAAGAGCCUUGCACAUCUATT; antisense UAGAUGUGCAAGGCUCUUGUU; sense: DNA at AGT, 2'-fluoro at CU, [invAb] at 5' end, 3' end, backbone not given here; antisense: sugars from the 5' end rrrmfmfmfmmmmfffffmmm, backbone not given here) | −13 ± 31.7% | −31 ± 7.4%
7 | 25466-DC: siNA duplex: sense B cAGAAGGGAuucuuAAcuu TTB (SEQ ID NO: 115), antisense AAGuuAAGAAucccuucuGUU (SEQ ID NO: 116) (sense CAGAAGGGAUUCUUAACUUTT; antisense AAGUUAAGAAUCCCUUCUGUU; sense: DNA at AGT, 2'-fluoro at CU, [invAb] at 5' end, 3' end, backbone not given here; antisense: sugars from the 5' end r3 f2 m5 f8 m3, backbone not given here) | 38 ± 25^ % | −17.8 ± 28.5%
8 | 25469-DC: siNA duplex: sense B AAAuGGGAAAuGAGcAAuA TTB (SEQ ID NO: 121), antisense UAUuGcucAuuucccAuuuUU (SEQ ID NO: 122) (sense AAAUGGGAAAUGAGCAAUATT; antisense UAUUGCUCAUUUCCCAUUUUU; sense: DNA at AGT, 2'-fluoro at CU, [invAb] at 5' end, 3' end, backbone not given here; antisense: sugars from the 5' end rrrfmfffmffffffmfffmm, backbone not given here) | −1 ± 18.8% | −17.2 ± 17.9%
9 | 25465-DC: siNA duplex: sense B cuGcuAuGAAAAucucuAu TTB (SEQ ID NO: 113), antisense AUAGAGAuuuucAuaGcAGUU (SEQ ID NO: 114) (sense CUGCUAUGAAAAUCUCUAUTT; antisense AUAGAGAUUUUCAUAGCAGUU; sense: DNA at AGT, 2'-fluoro at CU, [invAb] at 5' end, 3' end, backbone not given here; antisense: RNA at 1, 2, 3, 2'-O-methyl at 4, 5, 6, 7, 13, 16, 18, 19, 20, 21, 2'-fluoro at 8, 9, 10, 11, 12, 14, 17, other sugars and backbone not given here) | 23 ± 4.8% | 48.6 ± 2.2%
10 | 25447-DC: siNA duplex: sense B uuuGuGAAcAcuuuuGAAA TTB (SEQ ID NO: 77), antisense UUUcAAAAGuGuucAcAAAUU (SEQ ID NO: 78) (sense UUUGUGAACACUUUUGAAATT; antisense UUUCAAAAGUGUUCACAAAUU; sense: DNA at AGT, 2'-fluoro at CU, [invAb] at 5' end, 3' end, backbone not given here; antisense: sugars from the 5' end rrrfmmmmmfmfffmfmmmmm, backbone not given here) | 84 ± 4.6% | 18.5 ± 3.8%
11 | 25456-DC: siNA duplex: sense B uccuGAAAAucGAGuAuuA TTB (SEQ ID NO: 95), antisense UAAuAcucGAuuuucAGGAUU (SEQ ID NO: 96) (sense UCCUGAAAAUCGAGUAUUATT; antisense UAAUACUCGAUUUUCAGGAUU; sense: DNA at AGT, 2'-fluoro at CU, [invAb] at 5' end, 3' end, backbone not given here; antisense: sugars from the 5' end rrrfmfffmmfffffmmmmmm, backbone not given here) | 23 ± 1.1% | 53.3 ± 0.3%
